Values belong to the compound of their own block, whether it stands above or below them.
System: 186277-243-T-J2-PDC complex spheroids, viability
Experiment: Anticancer human tumor 186277-243-T-J2-PDC patient-derived colon adenocarcinoma cell line growth inhibition [RAS]
Settings: for IC50: curve of first compound; for viability, T/C: stronger effect = lower value
In short: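 Agents were tested in combination matrices in half-log decrements from a top concentration at or near clinical Cmax (10 microM if undetermined). Targets were multi-cell spheroids of tumour lines plus HUVEC and MSC stromal cells.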
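Further: spheroids exposed to compounds for 7 days before viability read.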

IC50 (second compound 0.00316 µM): 509 nM | IC50 (second compound 0.01 µM): 460 nM | IC50 (second compound 0.0316 µM): 771 nM | IC50 (second compound 0.1 µM): 1020 nM | IC50 (second compound 0.316 µM): 453 nM | IC50 (second compound 1 µM): 344 nM
SMILES: CC(Nc1ccc2c(c1)OCCn1cc(N3C(=O)OCC3C(F)F)nc1-2)C(N)=O (centres undefined) + C=CC(=O)N1CCN(c2nc(OCC3CCCN3C)nc3c(F)c(-c4nc(N)cc(C)c4C(F)(F)F)c(Cl)cc23)C(C)C1
viability, T/C (second compound 0.00316 µM, first compound 0.0316 µM): 109% | viability, T/C (second compound 0.00316 µM, first compound 0.1 µM): 108% | viability, T/C (second compound 0.00316 µM, first compound 0.316 µM): 58.9% | viability, T/C (second compound 0.00316 µM, first compound 1 µM): 40.8% | viability, T/C (second compound 0.00316 µM, first compound 3.16 µM): 34.7% | viability, T/C (second compound 0.00316 µM, first compound 10 µM): 35% | viability, T/C (second compound 0.01 µM, first compound 0.0316 µM): 102% | viability, T/C (second compound 0.01 µM, first compound 0.1 µM): 109% | viability, T/C (second compound 0.01 µM, first compound 0.316 µM): 57.3% | viability, T/C (second compound 0.01 µM, first compound 1 µM): 42% | viability, T/C (second compound 0.01 µM, first compound 3.16 µM): 36.7% | viability, T/C (second compound 0.01 µM, first compound 10 µM): 25.3% | viability, T/C (second compound 0.0316 µM, first compound 0.0316 µM): 90.2% | viability, T/C (second compound 0.0316 µM, first compound 0.1 µM): 105% | viability, T/C (second compound 0.0316 µM, first compound 0.316 µM): 70.3% | viability, T/C (second compound 0.0316 µM, first compound 1 µM): 47.1% | viability, T/C (second compound 0.0316 µM, first compound 3.16 µM): 37.4% | viability, T/C (second compound 0.0316 µM, first compound 10 µM): 33.5% | viability, T/C (second compound 0.1 µM, first compound 0.0316 µM): 82.8% | viability, T/C (second compound 0.1 µM, first compound 0.1 µM): 99.9% | viability, T/C (second compound 0.1 µM, first compound 0.316 µM): 72.8% | viability, T/C (second compound 0.1 µM, first compound 1 µM): 50.5% | viability, T/C (second compound 0.1 µM, first compound 3.16 µM): 42.8% | viability, T/C (second compound 0.1 µM, first compound 10 µM): 31.2% | viability, T/C (second compound 0.316 µM, first compound 0.0316 µM): 105% | viability, T/C (second compound 0.316 µM, first compound 0.1 µM): 103% | viability, T/C (second compound 0.316 µM, first compound 0.316 µM): 55.3% | viability, T/C (second compound 0.316 µM, first compound 1 µM): 42.5% | viability, T/C (second compound 0.316 µM, first compound 3.16 µM): 36.1% | viability, T/C (second compound 0.316 µM, first compound 10 µM): 33.7% | viability, T/C (second compound 1 µM, first compound 0.0316 µM): 93.3% | viability, T/C (second compound 1 µM, first compound 0.1 µM): 98.5% | viability, T/C (second compound 1 µM, first compound 0.316 µM): 51% | viability, T/C (second compound 1 µM, first compound 1 µM): 44.1% | viability, T/C (second compound 1 µM, first compound 3.16 µM): 41.5% | viability, T/C (second compound 1 µM, first compound 10 µM): 28.3%

IC50 (second compound 0.000949 µM): > 1000 nM | IC50 (second compound 0.003 µM): > 1000 nM | IC50 (second compound 0.00949 µM): > 1000 nM | IC50 (second compound 0.03 µM): > 1000 nM | IC50 (second compound 0.0949 µM): > 1000 nM | IC50 (second compound 0.3 µM): > 1000 nM
SMILES: CCN1CCN(Cc2ccc(Nc3ncc(F)c(-c4cc(F)c5nc(C)n(C(C)C)c5c4)n3)nc2)CC1 + CCn1c(-c2cccnc2C(C)OC)c2c3cc(ccc31)N1CCOC(CC(NC(=O)C(C(C)C)N(C)C(=O)C3(F)CCN(C(=O)C#CC(C)(C)N(C)C)CC3)C(=O)N3CCCC(N3)C(=O)OCC(C)(C)C2)C1
viability, T/C (second compound 0.000949 µM, first compound 0.00316 µM): 123% | viability, T/C (second compound 0.000949 µM, first compound 0.01 µM): 105% | viability, T/C (second compound 0.000949 µM, first compound 0.0316 µM): 135% | viability, T/C (second compound 0.000949 µM, first compound 0.1 µM): 140% | viability, T/C (second compound 0.000949 µM, first compound 0.316 µM): 184% | viability, T/C (second compound 0.000949 µM, first compound 1 µM): 126% | viability, T/C (second compound 0.003 µM, first compound 0.00316 µM): 109% | viability, T/C (second compound 0.003 µM, first compound 0.01 µM): 95.8% | viability, T/C (second compound 0.003 µM, first compound 0.0316 µM): 135% | viability, T/C (second compound 0.003 µM, first compound 0.1 µM): 160% | viability, T/C (second compound 0.003 µM, first compound 0.316 µM): 168% | viability, T/C (second compound 0.003 µM, first compound 1 µM): 128% | viability, T/C (second compound 0.00949 µM, first compound 0.00316 µM): 85.8% | viability, T/C (second compound 0.00949 µM, first compound 0.01 µM): 116% | viability, T/C (second compound 0.00949 µM, first compound 0.0316 µM): 97.7% | viability, T/C (second compound 0.00949 µM, first compound 0.1 µM): 162% | viability, T/C (second compound 0.00949 µM, first compound 0.316 µM): 180% | viability, T/C (second compound 0.00949 µM, first compound 1 µM): 132% | viability, T/C (second compound 0.03 µM, first compound 0.00316 µM): 102% | viability, T/C (second compound 0.03 µM, first compound 0.01 µM): 136% | viability, T/C (second compound 0.03 µM, first compound 0.0316 µM): 135% | viability, T/C (second compound 0.03 µM, first compound 0.1 µM): 155% | viability, T/C (second compound 0.03 µM, first compound 0.316 µM): 171% | viability, T/C (second compound 0.03 µM, first compound 1 µM): 110% | viability, T/C (second compound 0.0949 µM, first compound 0.00316 µM): 118% | viability, T/C (second compound 0.0949 µM, first compound 0.01 µM): 134% | viability, T/C (second compound 0.0949 µM, first compound 0.0316 µM): 122% | viability, T/C (second compound 0.0949 µM, first compound 0.1 µM): 142% | viability, T/C (second compound 0.0949 µM, first compound 0.316 µM): 142% | viability, T/C (second compound 0.0949 µM, first compound 1 µM): 90.7% | viability, T/C (second compound 0.3 µM, first compound 0.00316 µM): 134% | viability, T/C (second compound 0.3 µM, first compound 0.01 µM): 113% | viability, T/C (second compound 0.3 µM, first compound 0.0316 µM): 123% | viability, T/C (second compound 0.3 µM, first compound 0.1 µM): 116% | viability, T/C (second compound 0.3 µM, first compound 0.316 µM): 104% | viability, T/C (second compound 0.3 µM, first compound 1 µM): 58.6%
